This is an account of results in patent US9133181B2, “Substituted 6-(4-hydroxy-phenyl)-1H-pyrazolo[3,4-b]pyridine derivatives as kinase inhibitors” (SANOFI, priority 2012, dated 2015).

Each structure is given as a SMILES string.

The target of the assay is T1, human full-length recombinant PKC βII (Homo sapiens, UniProt P05771).
T1 construct: Active human full-length recombinant PKC βII; purchased Invitrogen GmbH, Darmstadt, Germany
T1 sequence (P05771 1-673 isoform P05771-2): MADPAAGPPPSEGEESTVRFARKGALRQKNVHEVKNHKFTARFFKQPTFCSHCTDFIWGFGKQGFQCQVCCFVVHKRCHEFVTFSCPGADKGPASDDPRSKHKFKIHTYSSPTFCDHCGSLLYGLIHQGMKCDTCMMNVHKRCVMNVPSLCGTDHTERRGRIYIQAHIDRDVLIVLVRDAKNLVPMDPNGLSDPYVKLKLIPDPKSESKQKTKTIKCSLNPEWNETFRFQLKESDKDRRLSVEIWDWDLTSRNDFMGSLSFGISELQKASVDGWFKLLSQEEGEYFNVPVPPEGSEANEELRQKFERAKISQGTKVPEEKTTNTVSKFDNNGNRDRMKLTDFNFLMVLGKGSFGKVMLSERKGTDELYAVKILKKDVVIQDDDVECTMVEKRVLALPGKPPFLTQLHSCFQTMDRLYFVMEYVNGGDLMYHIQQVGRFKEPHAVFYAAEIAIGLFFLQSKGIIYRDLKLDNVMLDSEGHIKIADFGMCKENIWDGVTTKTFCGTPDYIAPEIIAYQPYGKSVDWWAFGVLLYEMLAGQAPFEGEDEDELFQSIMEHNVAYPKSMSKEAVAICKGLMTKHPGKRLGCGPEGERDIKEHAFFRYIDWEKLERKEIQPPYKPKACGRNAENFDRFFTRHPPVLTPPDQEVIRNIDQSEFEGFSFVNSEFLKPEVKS
Briefly: Determination of PKC βII inhibition (Caliper mobility shift kinase assay). The format is biochemical. Conditions: final compound concentration 1.14 μM (±0.15 μM); 60 min incubation at 32° C. The gist of the method:
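Compound was tested at a final 1.14 µM (±0.15 µM), with % inhibition derived from the product/(substrate+product) peak ratio on a Caliper mobility-shift read-out. Full-length PKC βII was activated by CaCl2, PS and DAG in pH 7.4 Hepes/MgCl2. Peptide and ATP were at 3 µM and 120 µM in the added mix. Incubation was 60 min at 32 °C.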
Usually inhibition stands for the relative decrease from the control value, in per cent. With `Cc1n[nH]c2nc(-c3ccc(O)cc3F)cc(CN3CCNC[C@H]3c3cccc(F)c3)c12` [Example 120, 3-Fluoro-4-{4-[(R)-2-(3-fluoro-phenyl)-piperazin-1-ylmethyl]-3-methyl-1H-pyrazolo[3,4-b]pyridin-6-yl}-phenol], the inhibition at 1.14 µM was 102%.

Consider `Cc1n[nH]c2nc(-c3ccc(O)cc3F)cc(CN3CCC[C@@](C)(N)C3)c12` [Example 148, 4-[4-((R)-3-Amino-3-methyl-piperidin-1-ylmethyl)-3-methyl-1H-pyrazolo[3,4-b]pyridin-6-yl]-3-fluoro-phenol], for which the inhibition at 1.14 µM came out at 99%.

As for `Cc1n[nH]c2nc(-c3ccc(O)cc3)cc(CN3CCNCC34CCCC4)c12` [Example 47, 4-[4-(6,9-Diaza-spiro[4.5]dec-6-ylmethyl)-3-methyl-1H-pyrazolo[3,4-b]pyridin-6-yl]-phenol], the inhibition at 1.14 µM was found to be 101%.

On to `Cc1n[nH]c2nc(-c3ccc(O)cc3)cc(CN3C[C@@H](C)NC[C@@H]3C)c12` [Example 54, 4-[4-((2S,5R)-2,5-Dimethyl-piperazin-1-ylmethyl)-3-methyl-1H-pyrazolo[3,4-b]pyridin-6-yl]-phenol], for which the inhibition at 1.14 µM came out at 98%.
